Source: the NIST ThermoML archive (doi:10.1016/j.fluid.2018.06.013)
± gives the expanded uncertainty stated by the source.

Assay: activity coefficient (dimensionless); of the first substance listed, at infinite dilution; xn = mol fraction of the nth substance listed
Settings: 100 kPa, Liquid, Chromatography, x1 = 0

| SMILES | activity coefficient (313.15 K) | activity coefficient (323.15 K) | activity coefficient (343.15 K) | activity coefficient (363.15 K) | activity coefficient (373.15 K) |
| --- | --- | --- | --- | --- | --- |
| COC(C)(C)C [2-methoxy-2-methylpropane] + CCCC[N+]1(C)CCCC1.N#CN=C=[N-] | 6.25 ± 0.66 | 6.32 ± 0.66 | 6.55 ± 0.69 | 6.92 ± 0.73 | 7.15 ± 0.75 |
| CCC(=O)OC [methyl propanoate] + CCCC[N+]1(C)CCCC1.N#CN=C=[N-] | 2.07 ± 0.22 | 2.09 ± 0.22 | 2.22 ± 0.23 | 2.33 ± 0.24 | 2.4 ± 0.25 |
| C#CCCCCC [1-heptyne] + CCCC[N+]1(C)CCCC1.N#CN=C=[N-] | 5.76 ± 0.61 | 5.95 ± 0.63 | 6.39 ± 0.67 | 6.76 ± 0.71 | 6.92 ± 0.73 |
| C1COCCO1 [1,4-dioxane] + CCCC[N+]1(C)CCCC1.N#CN=C=[N-] | 0.909 ± 0.093 | 0.962 ± 0.098 | 1.05 ± 0.11 | 1.13 ± 0.12 | 1.17 ± 0.12 |
| CCC[N+](=O)[O-] [1-nitropropane] + CCCC[N+]1(C)CCCC1.N#CN=C=[N-] | 0.721 ± 0.075 | 0.74 ± 0.077 | 0.789 ± 0.081 | 0.827 ± 0.085 | 0.838 ± 0.086 |
| Cc1ccccc1 [toluene] + CCCC[N+]1(C)CCCC1.N#CN=C=[N-] | 2.07 ± 0.22 | 2.14 ± 0.22 | 2.3 ± 0.24 | 2.43 ± 0.26 | 2.48 ± 0.26 |
| Cc1cccc(C)c1 [1,3-dimethylbenzene] + CCCC[N+]1(C)CCCC1.N#CN=C=[N-] | 3.36 ± 0.35 | 3.47 ± 0.36 | 3.58 ± 0.38 | 3.74 ± 0.39 | 3.81 ± 0.4 |
| CCC=O [propanal] + CCCC[N+]1(C)CCCC1.N#CN=C=[N-] | 1.04 ± 0.11 | 1.05 ± 0.11 | 1.1 ± 0.1 | 1.16 ± 0.12 | 1.21 ± 0.12 |
| CCOC(C)=O [ethyl acetate] + CCCC[N+]1(C)CCCC1.N#CN=C=[N-] | 2.35 ± 0.25 | 2.36 ± 0.25 | 2.48 ± 0.26 | 2.57 ± 0.27 | 2.61 ± 0.27 |
| C=CCCCCC [1-heptene] + CCCC[N+]1(C)CCCC1.N#CN=C=[N-] | 31.5 ± 3.3 | 30.4 ± 3.2 | 29.2 ± 3.1 | 27.8 ± 2.9 | 27.7 ± 2.9 |
| CC(C)OC(C)C [diisopropyl ether] + CCCC[N+]1(C)CCCC1.N#CN=C=[N-] | 19.4 ± 2 | 18.8 ± 2 | 19.1 ± 2 | 18.6 ± 2 | 18.3 ± 1.9 |
| CCCCO [butan-1-ol] + CCCC[N+]1(C)CCCC1.N#CN=C=[N-] | 0.897 ± 0.092 | 0.873 ± 0.089 | 0.844 ± 0.087 | 0.836 ± 0.086 | 0.814 ± 0.084 |
| CCCCCCCC [octane] + CCCC[N+]1(C)CCCC1.N#CN=C=[N-] | 119 ± 13 | 111 ± 12 | 96 ± 10 | 86 ± 9.1 | 81 ± 8.5 |
| c1ccncc1 [pyridine] + CCCC[N+]1(C)CCCC1.N#CN=C=[N-] | 1.02 ± 0.1 | 1.05 ± 0.11 | 1.07 ± 0.11 | 1.11 ± 0.11 | 1.13 ± 0.12 |
| CCCOCCC [dipropyl ether] + CCCC[N+]1(C)CCCC1.N#CN=C=[N-] | 17.9 ± 1.9 | 17 ± 1.8 | 16.8 ± 1.8 | 16.6 ± 1.7 | 16.6 ± 1.7 |
| C=CCCCCCCCC [1-decene] + CCCC[N+]1(C)CCCC1.N#CN=C=[N-] | 104 ± 11 | 98.2 ± 10 | 89.4 ± 9.4 | 83.7 ± 8.8 | 78.7 ± 8.3 |
| Cc1ccccc1C [1,2-dimethylbenzene] + CCCC[N+]1(C)CCCC1.N#CN=C=[N-] | 2.69 ± 0.28 | 2.75 ± 0.29 | 2.91 ± 0.31 | 3.1 ± 0.3 | 3.18 ± 0.33 |
| CC(C)=O [acetone] + CCCC[N+]1(C)CCCC1.N#CN=C=[N-] | 0.907 ± 0.093 | 0.91 ± 0.09 | 0.978 ± 0.099 | 1.04 ± 0.11 | 1.06 ± 0.11 |
| Cc1ccc(C)cc1 [1,4-dimethylbenzene] + CCCC[N+]1(C)CCCC1.N#CN=C=[N-] | 3.24 ± 0.34 | 3.24 ± 0.34 | 3.47 ± 0.36 | 3.63 ± 0.38 | 3.73 ± 0.39 |

Results, then the compound that gave them:

| activity coefficient (313.15 K) | activity coefficient (323.15 K) | activity coefficient (343.15 K) | activity coefficient (363.15 K) | activity coefficient (373.15 K) | SMILES |
| --- | --- | --- | --- | --- | --- |
| 2.92 ± 0.31 | 3 ± 0.32 | 3.16 ± 0.33 | 3.25 ± 0.34 | 3.34 ± 0.35 | CCCC(=O)OC [methyl butanoate] + CCCC[N+]1(C)CCCC1.N#CN=C=[N-] |
| 0.807 ± 0.083 | 0.845 ± 0.087 | 0.929 ± 0.095 | 1.01 ± 0.1 | 1.05 ± 0.11 | c1ccsc1 [thiophene] + CCCC[N+]1(C)CCCC1.N#CN=C=[N-] |
| 1.38 ± 0.14 | 1.4 ± 0.14 | 1.49 ± 0.15 | 1.6 ± 0.2 | 1.62 ± 0.17 | c1ccccc1 [benzene] + CCCC[N+]1(C)CCCC1.N#CN=C=[N-] |
| 0.744 ± 0.077 | 0.719 ± 0.075 | 0.714 ± 0.074 | 0.711 ± 0.074 | 0.696 ± 0.073 | CC(C)O [propan-2-ol] + CCCC[N+]1(C)CCCC1.N#CN=C=[N-] |
| 47.8 ± 5 | 46.3 ± 4.9 | 42.8 ± 4.5 | 40.3 ± 4.2 | 39 ± 4.1 | C=CCCCCCC [oct-1-ene] + CCCC[N+]1(C)CCCC1.N#CN=C=[N-] |
| 1.7 ± 0.18 | 1.76 ± 0.18 | 1.9 ± 0.2 | 1.99 ± 0.21 | 2.04 ± 0.21 | CCC(=O)CC [pentan-3-one] + CCCC[N+]1(C)CCCC1.N#CN=C=[N-] |
| 0.533 ± 0.058 | 0.525 ± 0.057 | 0.52 ± 0.06 | 0.519 ± 0.057 | 0.521 ± 0.057 | CCO [ethanol] + CCCC[N+]1(C)CCCC1.N#CN=C=[N-] |
| 8.87 ± 0.93 | 9.03 ± 0.95 | 9.41 ± 0.99 | 9.79 ± 1 | 9.87 ± 1 | C#CCCCCCC [1-octyne] + CCCC[N+]1(C)CCCC1.N#CN=C=[N-] |
| 0.875 ± 0.09 | 0.888 ± 0.091 | 0.859 ± 0.088 | 0.869 ± 0.089 | 0.881 ± 0.09 | CCC(C)O (stereo not given) [butan-2-ol] + CCCC[N+]1(C)CCCC1.N#CN=C=[N-] |
| 172 ± 18 | 154 ± 16 | 133 ± 14 | 120 ± 13 | 114 ± 12 | CCCCCCCCC [nonane] + CCCC[N+]1(C)CCCC1.N#CN=C=[N-] |
| 3.32 ± 0.35 | 3.43 ± 0.36 | 3.52 ± 0.37 | 3.7 ± 0.4 | 3.77 ± 0.4 | CCc1ccccc1 [ethylbenzene] + CCCC[N+]1(C)CCCC1.N#CN=C=[N-] |
| 1.4 ± 0.14 | 1.46 ± 0.15 | 1.53 ± 0.16 | 1.62 ± 0.17 | 1.67 ± 0.17 | CCCC=O [butanal] + CCCC[N+]1(C)CCCC1.N#CN=C=[N-] |
| 2.2 ± 0.23 | 2.37 ± 0.25 | 2.67 ± 0.28 | 2.89 ± 0.3 | 3.02 ± 0.32 | C=C(C)c1ccccc1 [(1-methylethenyl)benzene] + CCCC[N+]1(C)CCCC1.N#CN=C=[N-] |
| 9.56 ± 1 | 9.39 ± 0.99 | 9.65 ± 1 | 9.77 ± 1 | 9.93 ± 1 | CCC(C)(C)OC [2-methoxy-2-methylbutane] + CCCC[N+]1(C)CCCC1.N#CN=C=[N-] |
| 1.34 ± 0.14 | 1.39 ± 0.14 | 1.48 ± 0.15 | 1.56 ± 0.16 | 1.6 ± 0.17 | C1CCOC1 [tetrahydrofuran] + CCCC[N+]1(C)CCCC1.N#CN=C=[N-] |
| 0.872 ± 0.089 | 0.835 ± 0.086 | 0.785 ± 0.081 | 0.786 ± 0.081 | 0.764 ± 0.079 | CC(C)CO [2-methyl-1-propanol] + CCCC[N+]1(C)CCCC1.N#CN=C=[N-] |
| 1.73 ± 0.18 | 1.79 ± 0.19 | 1.89 ± 0.2 | 1.96 ± 0.21 | 2.02 ± 0.21 | CCCC(C)=O [pentan-2-one] + CCCC[N+]1(C)CCCC1.N#CN=C=[N-] |
| 21 ± 2.2 | 20.3 ± 2.1 | 19.3 ± 2 | 18.4 ± 1.9 | 18.6 ± 2 | C=CCCCC [hex-1-ene] + CCCC[N+]1(C)CCCC1.N#CN=C=[N-] |
| 0.336 ± 0.042 | 0.333 ± 0.041 | 0.339 ± 0.042 | 0.348 ± 0.043 | 0.353 ± 0.043 | CO [methanol] + CCCC[N+]1(C)CCCC1.N#CN=C=[N-] |
| 9.06 ± 0.95 | 8.78 ± 0.92 | 8.65 ± 0.91 | 8.48 ± 0.89 | 8.26 ± 0.87 | C1=CCCCC1 [cyclohexene] + CCCC[N+]1(C)CCCC1.N#CN=C=[N-] |
| 3.81 ± 0.4 | 3.98 ± 0.42 | 4.32 ± 0.45 | 4.61 ± 0.48 | 4.77 ± 0.5 | C#CCCCC [1-hexyne] + CCCC[N+]1(C)CCCC1.N#CN=C=[N-] |
| 79.1 ± 8.3 | 74.6 ± 7.9 | 66.5 ± 7 | 60.2 ± 6.3 | 53.6 ± 5.6 | CCCCCCC [heptane] + CCCC[N+]1(C)CCCC1.N#CN=C=[N-] |
